These results are taken from patent US11851431B2, “Tricyclic Janus kinase 1 inhibitors, and compositions and methods thereof” (LYNK PHARMACEUTICALS CO. LTD., priority 2018, dated 2023).

Each structure is given as a SMILES string.

Experiment [1] has as its target T1, JAK1 (Homo sapiens, UniProt P23458).
T1 construct: purchased Carna Biosciences
The experiment is described as follows: JAK biochemical microfluidic assay (Caliper EZ Reader), JAK1. The note with it: 1 mM ATP; head prints (5 nM). The protocol:
(§1) JAK activity was determined in the reaction buffer 50 mM HEPES, 0.01% Brij35, 10 mM MgCl2, 2 mM DTT by a microfluidic assay. The phosphorylation of a FAM labeled peptide substrate was monitored in the Caliper EZ Reader II (Perkin Elmer). The assay condition for each batch of enzyme (Carna Biosciences) was optimized to obtain 10% conversion rate of peptide substrate.
(§2) The test compounds were dissolved in DMSO to a stock concentration of 10 mM. Three-fold serially diluted compounds with top concentration of 5 μM were pre-incubated with JAK1, JAK2 or TYK2 for 10 min at ambient temperature. The final DMSO concentration of assay mixture was 1%. […] The reaction was stopped by adding 50 mM EDTA.
(§3) The percent inhibition was calculated by the following formula. % Inhibition=(Conversionmax−Conversionsample)/(Conversionmax−Conversionmin)*100 Conversionmax means the conversion rate in the positive well without addition of compound • […] means the conversion rate in the well without addition of enzyme • Conversionsample means the conversion rate of test compounds
(§4) The dose-response (percent inhibition) curve was plotted and IC50 values were determined by GraphPad software.

Experiment [2] addresses T2, JAK2 (Homo sapiens, UniProt O60674).
T2 construct: purchased Carna Biosciences
Nature of the experiment: JAK biochemical microfluidic assay (Caliper EZ Reader), JAK2. The following applies: 1 mM ATP; head prints (0.25 nM). The procedure: as §1, §2, §3, §4

The target in experiment [3] is T3, TYK2 (Homo sapiens, UniProt P29597).
T3 construct: purchased Carna Biosciences
T3 sequence (P29597 whole entry): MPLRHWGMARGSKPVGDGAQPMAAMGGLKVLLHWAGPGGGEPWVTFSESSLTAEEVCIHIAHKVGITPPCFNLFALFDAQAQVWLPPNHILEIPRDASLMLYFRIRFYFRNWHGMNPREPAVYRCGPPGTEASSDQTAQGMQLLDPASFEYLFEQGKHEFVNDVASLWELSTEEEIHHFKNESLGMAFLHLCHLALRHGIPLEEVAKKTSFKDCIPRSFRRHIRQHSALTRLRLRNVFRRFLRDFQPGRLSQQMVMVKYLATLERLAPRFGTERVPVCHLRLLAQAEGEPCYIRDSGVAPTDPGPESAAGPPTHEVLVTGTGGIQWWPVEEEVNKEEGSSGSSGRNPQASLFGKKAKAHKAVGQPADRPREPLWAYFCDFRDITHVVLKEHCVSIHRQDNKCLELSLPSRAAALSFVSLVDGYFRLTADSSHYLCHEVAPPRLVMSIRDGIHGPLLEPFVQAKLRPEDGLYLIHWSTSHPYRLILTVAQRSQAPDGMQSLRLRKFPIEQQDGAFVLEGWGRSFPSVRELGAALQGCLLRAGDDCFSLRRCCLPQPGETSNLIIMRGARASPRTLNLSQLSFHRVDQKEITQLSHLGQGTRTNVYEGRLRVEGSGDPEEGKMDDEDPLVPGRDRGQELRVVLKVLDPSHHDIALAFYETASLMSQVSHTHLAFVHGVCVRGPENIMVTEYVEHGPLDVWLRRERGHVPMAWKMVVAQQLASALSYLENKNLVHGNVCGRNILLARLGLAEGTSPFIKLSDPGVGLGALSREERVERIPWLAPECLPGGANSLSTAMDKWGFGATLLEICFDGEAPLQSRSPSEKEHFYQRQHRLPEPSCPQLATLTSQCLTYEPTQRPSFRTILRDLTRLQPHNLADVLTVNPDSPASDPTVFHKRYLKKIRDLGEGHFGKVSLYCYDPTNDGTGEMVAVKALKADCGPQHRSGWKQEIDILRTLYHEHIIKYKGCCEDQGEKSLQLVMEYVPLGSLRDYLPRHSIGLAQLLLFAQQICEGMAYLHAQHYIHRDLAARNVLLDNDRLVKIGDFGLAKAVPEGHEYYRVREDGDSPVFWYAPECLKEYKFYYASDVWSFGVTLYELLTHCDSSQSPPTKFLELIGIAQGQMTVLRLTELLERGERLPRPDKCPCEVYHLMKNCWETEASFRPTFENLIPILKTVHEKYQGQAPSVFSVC
The experiment is described as follows: JAK biochemical microfluidic assay (Caliper EZ Reader), TYK2. The following applies: 1 mM ATP; head prints (2.5 nM). The protocol:
as §1, §2, §3, §4

Experiment [4] relates to BaF3-TEL-JAK1. Nature of the experiment: Anti-proliferative assay, BaF3-TEL-JAK1 cells. The experiment is classed as cell-based. The note with it: 72 h, Cell-Titer Glo. The protocol:
(§5) Dimerization domain of Tel protein fused with JAK kinase domain was permanently transduced into BaF3 cells, whose proliferation is dependent on JAK activity in the absence of IL-3 induction. These engineered BaF3-Tel-JAK cells were used to monitor JAK inhibitory activities of the compounds in the cellular.
(§6) BaF3-Tel-JAK cells were cultured in RPMI-1640 (Corning) containing 10% fetal bovine serum. Cells were seeded at 2000/well of white flat bottom 96-well plates. The well containing medium only was used as background control. After 24h growth, cells were treated with compounds. The test compounds were dissolved in DMSO to a stock concentration of 10 mM. 3-fold serially diluted compounds for 9 concentrations with top concentration of 10 μM was added into the each well. The final DMSO concentration was 0.2%. The cells continued to grow at 37° C. in 5% CO2 for 72 h after compound treatment. The viability was measured by cellular ATP determination using the Cell-Titer Glo luciferase reagent (Promega). The Luminescence value was recorded by a multi-label reader Envision (PerkinElmer). Values were transformed to percent inhibition using the following formula. % Inhibition=(Readoutmax−Readoutsample)/(Readoutmax−Readoutmin)*100
(§7) The well without compound but with equivalent DMSO was defined as Readout max
(§8) The well with only medium and equivalent DMSO was defined as Readout min
(§9) The dose-response (percent inhibition) curve was plotted and GI50 values (the concentration that causes 50% growth inhibition) were determined by GraphPad software.

Experiment [5] relates to BaF3-TEL-JAK2. The experiment is described as follows: Anti-proliferative assay, BaF3-TEL-JAK2 cells. The following applies: 72 h, Cell-Titer Glo. The experiment is classed as cell-based. The procedure: as §5, §6, §7, §8, §9

T2 sequence (O60674 whole entry): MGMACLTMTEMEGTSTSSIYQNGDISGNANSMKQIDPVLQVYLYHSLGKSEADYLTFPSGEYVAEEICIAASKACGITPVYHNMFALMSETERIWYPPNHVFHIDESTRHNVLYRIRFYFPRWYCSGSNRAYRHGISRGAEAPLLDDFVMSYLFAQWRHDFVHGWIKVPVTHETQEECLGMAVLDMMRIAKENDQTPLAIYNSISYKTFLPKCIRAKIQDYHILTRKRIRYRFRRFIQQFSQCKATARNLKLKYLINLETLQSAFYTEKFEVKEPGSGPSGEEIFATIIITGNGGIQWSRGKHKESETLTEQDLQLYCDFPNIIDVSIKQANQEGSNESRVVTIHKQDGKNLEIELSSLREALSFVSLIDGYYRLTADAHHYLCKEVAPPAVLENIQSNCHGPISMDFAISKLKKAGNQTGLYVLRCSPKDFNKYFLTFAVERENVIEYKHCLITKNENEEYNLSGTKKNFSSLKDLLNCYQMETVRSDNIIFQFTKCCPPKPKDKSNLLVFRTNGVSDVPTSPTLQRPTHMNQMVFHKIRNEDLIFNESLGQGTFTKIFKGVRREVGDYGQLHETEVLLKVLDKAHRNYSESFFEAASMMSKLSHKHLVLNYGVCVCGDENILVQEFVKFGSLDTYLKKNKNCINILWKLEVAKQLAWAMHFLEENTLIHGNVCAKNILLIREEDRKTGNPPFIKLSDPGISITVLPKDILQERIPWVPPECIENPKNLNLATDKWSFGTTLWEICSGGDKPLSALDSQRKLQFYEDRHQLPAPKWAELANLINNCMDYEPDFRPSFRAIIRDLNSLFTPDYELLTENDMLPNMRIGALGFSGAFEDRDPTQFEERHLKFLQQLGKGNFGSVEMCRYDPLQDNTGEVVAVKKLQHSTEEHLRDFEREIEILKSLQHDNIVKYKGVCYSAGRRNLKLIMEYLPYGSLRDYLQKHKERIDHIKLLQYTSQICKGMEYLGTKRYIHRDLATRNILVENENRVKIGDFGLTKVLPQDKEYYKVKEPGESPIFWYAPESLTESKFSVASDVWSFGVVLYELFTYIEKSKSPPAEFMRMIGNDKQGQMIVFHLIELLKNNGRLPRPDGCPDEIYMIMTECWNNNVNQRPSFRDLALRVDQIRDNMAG
T1 sequence (P23458 whole entry): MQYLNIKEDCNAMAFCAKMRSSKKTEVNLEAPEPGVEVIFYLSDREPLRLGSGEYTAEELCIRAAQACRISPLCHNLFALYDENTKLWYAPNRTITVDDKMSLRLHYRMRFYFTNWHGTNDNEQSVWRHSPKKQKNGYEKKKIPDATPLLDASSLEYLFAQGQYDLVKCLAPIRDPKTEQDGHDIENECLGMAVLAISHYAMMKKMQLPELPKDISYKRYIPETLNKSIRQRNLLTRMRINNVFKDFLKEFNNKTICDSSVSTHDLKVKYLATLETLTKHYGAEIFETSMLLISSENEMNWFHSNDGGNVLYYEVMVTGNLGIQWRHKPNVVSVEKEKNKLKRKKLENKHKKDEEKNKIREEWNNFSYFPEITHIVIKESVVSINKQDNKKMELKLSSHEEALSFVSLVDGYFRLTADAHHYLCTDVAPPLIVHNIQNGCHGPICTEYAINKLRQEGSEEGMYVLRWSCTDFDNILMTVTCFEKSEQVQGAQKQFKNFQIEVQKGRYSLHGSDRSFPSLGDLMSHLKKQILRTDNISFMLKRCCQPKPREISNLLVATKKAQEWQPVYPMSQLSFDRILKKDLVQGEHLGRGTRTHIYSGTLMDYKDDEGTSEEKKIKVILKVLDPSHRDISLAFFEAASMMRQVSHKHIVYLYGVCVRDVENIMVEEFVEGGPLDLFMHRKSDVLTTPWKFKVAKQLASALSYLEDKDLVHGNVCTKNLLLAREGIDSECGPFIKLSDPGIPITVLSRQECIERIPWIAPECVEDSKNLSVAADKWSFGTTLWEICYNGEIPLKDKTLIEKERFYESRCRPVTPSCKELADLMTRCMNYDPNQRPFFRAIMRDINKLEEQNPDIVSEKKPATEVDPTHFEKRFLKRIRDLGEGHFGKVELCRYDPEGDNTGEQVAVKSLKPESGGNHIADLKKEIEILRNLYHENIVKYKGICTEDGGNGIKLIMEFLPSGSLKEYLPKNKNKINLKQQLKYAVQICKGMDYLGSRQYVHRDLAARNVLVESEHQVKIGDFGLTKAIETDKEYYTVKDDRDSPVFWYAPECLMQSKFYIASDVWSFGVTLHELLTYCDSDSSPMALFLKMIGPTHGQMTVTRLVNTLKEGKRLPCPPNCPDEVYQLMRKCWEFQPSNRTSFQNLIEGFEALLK

As to `CC(C)CS(=O)(=O)NC12CC(n3cnc4cnc5[nH]ccc5c43)(C1)C2` [Example 5, N-(3-(imidazo[4,5-d]pyrrolo[2,3-b]pyridin-1(6H)-yl)bicyclo[1.1.1]pentan-1-yl)-2-methylpropane-1-sulfonamide], the results for the IC50 in experiment [1], in experiment [2] and in experiment [3] were 0.00553 µM, 0.145 µM and 0.111 µM, respectively. Also, the 50% growth inhibitory concentration (GI50) in experiment [4] amounted to 0.01 µM; in experiment [5], 0.38 µM.

For the compound `CC(C)(C)OC(=O)NC12CC(n3cnc4cnc5[nH]ccc5c43)(C1)C2` [Example 1i, Tert-butyl (3-(imidazo[4,5-d]pyrrolo[2,3-b]pyridin-1(6H)-yl)bicyclo[1.1.1]pentan-1-yl)carbamate], the figures for the concentration for half-maximal inhibition (IC50) in experiment [1], in experiment [2] and in experiment [3] were 0.043 µM, 0.472 µM and 2.88 µM, respectively.

In the case of `O=S(=O)(CC1CC(F)(F)C1)NC12CC(n3cnc4cnc5[nH]ccc5c43)(C1)C2` [Example 46, 1-(3,3-Difluorocyclobutyl)-N-(3-(imidazo[4,5-d]pyrrolo[2,3-b]pyridin-1(6H)-yl)bicyclo[1.1.1]pentan-1-yl)methanesulfonamide], the IC50 in experiment [1] was 0.0022 µM; in experiment [2], 0.0783 µM; in experiment [3], 0.108 µM. Further, the GI50 in experiment [4] was found to be 0.0142 µM; in experiment [5], 0.133 µM.

Regarding `CCCCS(=O)(=O)NC12CC(n3cnc4cnc5[nH]ccc5c43)(C1)C2` [Example 31, N-(3-(imidazo[4,5-d]pyrrolo[2,3-b]pyridin-1(6H)-yl)bicyclo[1.1.1]pentan-1-yl)butane-1-sulfonamide], the IC50 in experiment [1] worked out at 0.0048 µM; in experiment [2], 0.129 µM; in experiment [3] it was 0.17 µM. Besides, the concentration for 50% growth inhibition (GI50) in experiment [4] is 0.0278 µM; in experiment [5] it was 0.198 µM.

In the case of `COCCS(=O)(=O)NC12CC(n3cnc4cnc5[nH]ccc5c43)(C1)C2` [Example 6, N-(3-(imidazo[4,5-d]pyrrolo[2,3-b]pyridin-1(6H)-yl)bicyclo[1.1.1]pentan-1-yl)-2-methoxyethanesulfonamide], the half-maximal inhibitory concentration (IC50) in experiment [1] worked out at 0.0244 µM; in experiment [2], 0.597 µM; in experiment [3] it was 1.05 µM.

On to `CCCS(=O)(=O)N[C@H]1C[C@H](n2cnc3cnc4[nH]ccc4c32)C1` [Example 3, N-(trans-3-(imidazo[4,5-d]pyrrolo[2,3-b]pyridin-1(6H)-yl)cyclobutyl)propane-1-sulfonamide], for which the IC50 in experiment [1] turned out to be 0.19 µM; in experiment [2] it was 1.54 µM; in experiment [3], 3.66 µM. Moreover, the GI50 was 1.09 µM in experiment [4] and 2.54 µM in experiment [5].

Regarding `O=S(=O)(NC12CC(n3cnc4cnc5[nH]ccc5c43)(C1)C2)c1ccc(Cl)cc1` [Example 28, 4-Chloro-N-(3-(imidazo[4,5-d]pyrrolo[2,3-b]pyridin-1(6H)-yl)bicyclo[1.1.1]pentan-1-yl)benzenesulfonamide], the 50% inhibitory concentration (IC50) in experiment [1] stood at 0.0067 µM; in experiment [2] it was 0.259 µM; in experiment [3] it was 0.413 µM. For the same compound, the GI50 in experiment [4] amounted to 0.051 µM; in experiment [5], 0.286 µM.

Turning to `COCCCS(=O)(=O)NC12CC(n3cnc4cnc5[nH]ccc5c43)(C1)C2` [Example 26, N-(3-(Imidazo[4,5-d]pyrrolo[2,3-b]pyridin-1(6H)-yl)bicyclo[1.1.1]pentan-1-yl)-3-methoxypropane-1-sulfonamide], the IC50 amounted to 0.0262 µM in experiment [1] and 0.849 µM in experiment [2].

Consider `CC(C)(C#N)COC(=O)NC12CC(n3cnc4cnc5[nH]ccc5c43)(C1)C2` [Example 42, 2-Cyano-2-methylpropyl (3-(imidazo[4,5-d]pyrrolo[2,3-b]pyridin-1(6H)-yl)bicyclo[1.1.1]pentan-1-yl)carbamate], for which the IC50 in experiment [1] stood at 0.142 µM; in experiment [2] it was 0.965 µM.

As to `O=C(NCC(F)(F)F)NC12CC(n3cnc4cnc5[nH]ccc5c43)(C1)C2` [Example 41, 1-(3-(Imidazo[4,5-d]pyrrolo[2,3-b]pyridin-1(6H)-yl)bicyclo[1.1.1]pentan-1-yl)-3-(2,2,2-trifluoroethyl)urea], the IC50 in experiment [1] was 0.0085 µM; in experiment [2], 0.0946 µM. Further, the figures for the concentration for 50% growth inhibition (GI50) in experiment [4] and in experiment [5] were 0.0996 µM and 1 µM, respectively.

Take `CCCC(=O)NC12CC(n3cnc4cnc5[nH]ccc5c43)(C1)C2` [Example 9, N-(3-(imidazo[4,5-d]pyrrolo[2,3-b]pyridin-1(6H)-yl)bicyclo[1.1.1]pentan-1-yl)butyramide]: the IC50 is 0.0587 µM in experiment [1] and 0.441 µM in experiment [2].

On to `O=C(CCC(F)(F)F)NC12CC(n3cnc4cnc5[nH]ccc5c43)(C1)C2` [Example 18, 4,4,4-Trifluoro-N-(3-(imidazo[4,5-d]pyrrolo[2,3-b]pyridin-1(6H)-yl)bicyclo[1.1.1]pentan-1-yl)butanamide], for which the IC50 was determined as 0.0187 µM in experiment [1] and 0.167 µM in experiment [2]. In addition, the figures for the GI50 in experiment [4] and in experiment [5] were 0.12 µM and 0.291 µM, respectively.

Consider `O=C(NC12CC(n3cnc4cnc5[nH]ccc5c43)(C1)C2)N1CC(F)(F)C1` [Example 37, 3,3-Difluoro-N-(3-(imidazo[4,5-d]pyrrolo[2,3-b]pyridin-1(6H)-yl)bicyclo[1.1.1]pentan-1-yl)azetidine-1-carboxamide], for which the IC50 in experiment [1] worked out at 0.101 µM; in experiment [2] it was 0.678 µM.

Consider `O=S(=O)(NC12CC(n3cnc4cnc5[nH]ccc5c43)(C1)C2)C1CC1` [Example 7, N-(3-(imidazo[4,5-d]pyrrolo[2,3-b]pyridin-1(6H)-yl)bicyclo[1.1.1]pentan-1-yl)cyclopropanesulfonamide], for which the IC50 came out at 0.0453 µM in experiment [1], 0.47 µM in experiment [2] and 0.574 µM in experiment [3].

As to `CC(C)COC(=O)NC12CC(n3cnc4cnc5[nH]ccc5c43)(C1)C2` [Example 10, Isobutyl (3-(imidazo[4,5-d]pyrrolo[2,3-b]pyridin-1(6H)-yl)bicyclo[1.1.1]pentan-1-yl)carbamate], the IC50 in experiment [1] is 0.165 µM; in experiment [2], 0.868 µM.

On to `N[C@H]1C[C@@H](n2cnc3cnc4[nH]ccc4c32)C1` [Example 2e, Cis-3-(imidazo[4,5-d]pyrrolo[2,3-b]pyridin-1(6H)-yl)cyclobutanamine 2,2,2-trifluoroacetate], for which the IC50 in experiment [1] is 2.57 µM; in experiment [2] it was greater than 5 µM.

As to `N#CC1CCN(S(=O)(=O)NC23CC(n4cnc5cnc6[nH]ccc6c54)(C2)C3)C1` (centres unmarked) [Example 20, 3-Cyano-N-(3-(imidazo[4,5-d]pyrrolo[2,3-b]pyridin-1(6H)-yl)bicyclo[1.1.1]pentan-1-yl)pyrrolidine-1-sulfonamide], the figures for the IC50 in experiment [1], in experiment [2] and in experiment [3] were 0.0083 µM, 0.334 µM and 0.2 µM, respectively.

In the case of `CCCS(=O)(=O)N[C@H]1C[C@@H](n2cnc3cnc4[nH]ccc4c32)C1` [Example 2, N-(Cis-3-(imidazo[4,5-d]pyrrolo[2,3-b]pyridin-1(6H)-yl)cyclobutyl)propane-1-sulfonamide], the IC50 in experiment [1] worked out at 0.0692 µM; in experiment [2] it was 1.09 µM; in experiment [3] it was 2.85 µM. Besides, the GI50 in experiment [4] is 0.352 µM; in experiment [5], 2.3 µM.

As to `O=S(=O)(NC12CC(n3cnc4cnc5[nH]ccc5c43)(C1)C2)N1CC(F)(F)C1` [Example 23, 3,3-difluoro-N-(3-(imidazo[4,5-d]pyrrolo[2,3-b]pyridin-1(6H)-yl)bicyclo[1.1.1]pentan-1-yl)azetidine-1-sulfonamide], the IC50 in experiment [1] was determined as 0.0034 µM; in experiment [2] it was 0.0508 µM; in experiment [3], 0.0335 µM. For the same compound, the concentration for 50% growth inhibition (GI50) in experiment [4] was determined as 0.0416 µM; in experiment [5] it was 0.148 µM.

For `COC1CN(S(=O)(=O)NC23CC(n4cnc5cnc6[nH]ccc6c54)(C2)C3)C1` [Example 21, N-(3-(imidazo[4,5-d]pyrrolo[2,3-b]pyridin-1(6H)-yl)bicyclo[1.1.1]pentan-1-yl)-3-methoxyazetidine-1-sulfonamide], the IC50 in experiment [1] is 0.0142 µM; in experiment [2], 0.326 µM.

Regarding `N#CC1CCN(C(=O)NC23CC(n4cnc5cnc6[nH]ccc6c54)(C2)C3)C1` (centres unmarked) [Example 39, 3-Cyano-N-(3-(imidazo[4,5-d]pyrrolo[2,3-b]pyridin-1(6H)-yl)bicyclo[1.1.1]pentan-1-yl)pyrrolidine-1-carboxamide], the IC50 in experiment [1] turned out to be 0.0687 µM; in experiment [2], 0.526 µM.

What is called IC50 is the concentration that gives 50% inhibition. Higher therefore signals a need for much substance. For orientation: GI50 means the concentration giving 50% growth inhibition. Lower therefore signals more potent growth inhibition.
